Where two headings read alike, the source gives them in different places. One block for each molecule: values may come before it.
Tests used:
FaDu = assay: Growth inhibition of FaDu human squamous carcinoma cell line; assay type: cell-based
A253 = assay: Growth inhibition of A253 human squamous carcinoma cell line; assay type: cell-based; details: Table 19, continuous exposure (0 to 120 hours)
Experimental: The performance of these compounds was evaluated against MTX.

R30dm cells = assay: Growth inhibition of R30dm subline (decreased polyglutamate synthase); assay type: cell-based; details: Homo sapiens
CCRF-CEM DHFR = molecular target: T1, CCRF-CEM DHFR (Homo sapiens, UniProt P00374); assay: Inhibition of DHFR isolated from human CCRF-CEM leukemic cells; assay type: biochemical; details: Table 17
T1 construct: DHFR isolated from human CCRF-CEM leukemic cells; endogenous in cells; host or cells: CCRF-CEM human leukemic cells
T1 sequence (P00374 whole entry): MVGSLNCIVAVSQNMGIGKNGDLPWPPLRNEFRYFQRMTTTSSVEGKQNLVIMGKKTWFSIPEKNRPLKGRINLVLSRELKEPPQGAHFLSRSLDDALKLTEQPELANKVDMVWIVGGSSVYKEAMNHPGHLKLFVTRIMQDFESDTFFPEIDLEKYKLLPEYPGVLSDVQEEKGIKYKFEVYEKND

CCRF-CEM cells = assay: Growth inhibition of CCRF-CEM human leukemia cells, continuous exposure; assay type: cell-based
L. casei DHFR = L. casei DHFR (Lacticaseibacillus casei, UniProt P00381); assay: Inhibition of Lactobacillus casei DHFR; assay type: biochemical
L. casei DHFR, sequence (P00381 whole entry): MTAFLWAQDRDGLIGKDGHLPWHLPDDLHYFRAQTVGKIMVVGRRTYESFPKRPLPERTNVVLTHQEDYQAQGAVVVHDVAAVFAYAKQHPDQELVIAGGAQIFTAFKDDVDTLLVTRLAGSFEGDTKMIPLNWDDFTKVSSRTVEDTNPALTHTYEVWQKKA

[1] = molecular target: T2, CCRF-CEM human leukemia cell folylpolyglutamate synthetase (Homo sapiens, UniProt Q05932); assay: Substrate activity for CCRF-CEM folylpolyglutamate synthetase; assay type: biochemical; details: Table 18
T2 construct: substrates for human leukemia cell CCRF-CEM folylpolyglutamate synthetase; endogenous in cells; host or cells: CCRF-CEM human leukemia cells
T2 sequence (Q05932 43-587): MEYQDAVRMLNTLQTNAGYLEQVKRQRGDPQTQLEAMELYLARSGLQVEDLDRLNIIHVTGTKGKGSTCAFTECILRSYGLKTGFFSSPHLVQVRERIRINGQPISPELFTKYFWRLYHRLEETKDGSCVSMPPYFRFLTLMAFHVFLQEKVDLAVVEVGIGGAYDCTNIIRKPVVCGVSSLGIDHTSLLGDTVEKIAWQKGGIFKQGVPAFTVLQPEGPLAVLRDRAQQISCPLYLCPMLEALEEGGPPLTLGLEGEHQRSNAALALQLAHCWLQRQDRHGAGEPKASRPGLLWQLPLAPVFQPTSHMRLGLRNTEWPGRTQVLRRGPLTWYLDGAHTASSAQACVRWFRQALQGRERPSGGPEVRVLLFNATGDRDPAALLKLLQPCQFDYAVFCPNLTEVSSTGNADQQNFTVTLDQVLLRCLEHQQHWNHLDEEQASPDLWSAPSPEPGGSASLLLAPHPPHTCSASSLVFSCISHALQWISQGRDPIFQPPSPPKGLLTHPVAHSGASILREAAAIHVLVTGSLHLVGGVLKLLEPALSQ
Experimental: (§1) Aminopterin is a classical 2,4-diamino antifolate substrate.
(§2) Compounds 33 and 34 were also evaluated for their substrate activity in CCRF-CEM human leukemia folylpolyglutamate synthetase; the compounds were compared against aminopterin.

human recombinant TS = human recombinant TS (Homo sapiens, UniProt P04818); assay: Inhibition of human recombinant TS; assay type: biochemical; details: Table 17; read-out: Human REC TS IC50
human recombinant TS, sequence (P04818 whole entry): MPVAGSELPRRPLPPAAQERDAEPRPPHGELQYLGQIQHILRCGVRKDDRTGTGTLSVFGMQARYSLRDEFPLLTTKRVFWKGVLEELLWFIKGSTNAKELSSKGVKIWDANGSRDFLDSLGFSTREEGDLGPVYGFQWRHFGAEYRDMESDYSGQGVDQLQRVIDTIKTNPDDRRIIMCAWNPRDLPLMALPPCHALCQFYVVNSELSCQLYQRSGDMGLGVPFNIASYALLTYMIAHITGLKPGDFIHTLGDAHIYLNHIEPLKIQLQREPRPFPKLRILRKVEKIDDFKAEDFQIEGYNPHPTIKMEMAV

FaDu cells = assay: Protection of FaDu cells from growth inhibition by hypoxanthine, thymidine, leucovorin; assay type: cell-based, human
Experimental: Compound 113-161 was also tested for its ability to inhibit the growth of FaDu human squamous cell carcinoma cell lines. Performance was tested against MTX using hypoxanthine (Hx) and Thymidine (TdR).
Protection after 120 hours with di-LV was also determined. All of the tested compounds reversed inhibition with leucovorin.

RL DHFR = molecular target: T3, RL DHFR (Rattus norvegicus, UniProt Q920D2); assay: Inhibition of DHFR from rat liver; assay type: biochemical; details: Table 25; read-out: Inhibitor Concentrations (IC50) rlDHFR
T3 construct: Toxoplasmosis gondii (Tg) and rat liver (RL); from tissue; host or cells: rat liver
T3 sequence (Q920D2 1-187): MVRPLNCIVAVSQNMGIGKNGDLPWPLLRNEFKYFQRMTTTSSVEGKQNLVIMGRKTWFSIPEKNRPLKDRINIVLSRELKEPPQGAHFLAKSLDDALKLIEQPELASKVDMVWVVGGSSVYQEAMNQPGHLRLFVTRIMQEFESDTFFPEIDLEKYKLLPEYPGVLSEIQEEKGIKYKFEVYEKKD
Experimental: (§3) The selectivity ratio is a measure of the selectivity of a compound for Pc DHFR or Tg DHFR and is expressed as the IC50 value of the DHFR from rate liver (RL) divided by the IC50 value of either the Pc DHFR or the Tg DHFR, depending on which organism the compounds are being tested against. For example, the selectivity ratio of a compound is calculated by the following formula: [formula]

Tg DHFR = molecular target: T4, Tg DHFR (Toxoplasma gondii, UniProt Q07422); assay: biochemical; assay type: biochemical
T4 sequence (Q07422 1-610): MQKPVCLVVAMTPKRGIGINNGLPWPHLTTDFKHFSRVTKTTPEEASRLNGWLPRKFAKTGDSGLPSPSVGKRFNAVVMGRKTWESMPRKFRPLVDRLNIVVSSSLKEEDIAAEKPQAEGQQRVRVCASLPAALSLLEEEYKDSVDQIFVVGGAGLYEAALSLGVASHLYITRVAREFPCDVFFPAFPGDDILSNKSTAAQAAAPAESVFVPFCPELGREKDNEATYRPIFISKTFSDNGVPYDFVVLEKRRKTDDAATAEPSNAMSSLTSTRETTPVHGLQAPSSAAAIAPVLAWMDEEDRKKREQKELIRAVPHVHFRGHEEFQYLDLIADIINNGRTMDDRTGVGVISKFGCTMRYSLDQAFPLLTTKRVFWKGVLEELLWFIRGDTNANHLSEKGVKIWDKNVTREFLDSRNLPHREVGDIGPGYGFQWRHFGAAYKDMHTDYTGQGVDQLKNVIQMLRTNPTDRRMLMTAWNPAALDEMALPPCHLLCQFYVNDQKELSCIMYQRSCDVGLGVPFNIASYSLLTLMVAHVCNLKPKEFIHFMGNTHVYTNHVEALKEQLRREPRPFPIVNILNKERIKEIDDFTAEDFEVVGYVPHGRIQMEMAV
Experimental: as §3

Pc DHFR [2] = molecular target: T5, Pc DHFR (Pneumocystis carinii, UniProt P16184); assay type: biochemical
T5 sequence (P16184 1-206): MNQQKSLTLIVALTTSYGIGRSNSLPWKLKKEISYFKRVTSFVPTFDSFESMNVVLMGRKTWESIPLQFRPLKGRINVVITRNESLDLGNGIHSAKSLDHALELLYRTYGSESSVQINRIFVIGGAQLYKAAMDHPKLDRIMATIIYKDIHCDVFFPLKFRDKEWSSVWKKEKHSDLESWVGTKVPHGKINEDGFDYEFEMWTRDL
Experimental: as §3

Pc DHFR [3] = molecular target: T5, Pc DHFR; assay: biochemical
TS from P. carinii = TS from P. carinii (Pneumocystis carinii, UniProt P13100); assay: Inhibition of P. carinii TS; assay type: biochemical; details: b353
TS from P. carinii, sequence (P13100 whole entry): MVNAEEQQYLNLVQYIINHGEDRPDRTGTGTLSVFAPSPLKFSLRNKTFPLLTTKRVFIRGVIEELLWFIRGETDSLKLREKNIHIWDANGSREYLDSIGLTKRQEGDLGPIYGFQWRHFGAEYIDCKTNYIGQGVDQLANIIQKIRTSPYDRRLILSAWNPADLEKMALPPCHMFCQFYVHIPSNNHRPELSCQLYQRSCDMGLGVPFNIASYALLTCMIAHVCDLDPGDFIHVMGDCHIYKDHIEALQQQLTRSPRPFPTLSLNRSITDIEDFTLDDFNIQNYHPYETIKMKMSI

[4] = molecular target: E-coli thymidylate synthase (ecTS) (Escherichia coli, UniProt P0A884); assay: Inhibition of E. coli thymidylate synthase; assay type: biochemical; details: b353; read-out: inhibition of TS from E. coli
E-coli thymidylate synthase (ecTS), sequence (P0A884 whole entry): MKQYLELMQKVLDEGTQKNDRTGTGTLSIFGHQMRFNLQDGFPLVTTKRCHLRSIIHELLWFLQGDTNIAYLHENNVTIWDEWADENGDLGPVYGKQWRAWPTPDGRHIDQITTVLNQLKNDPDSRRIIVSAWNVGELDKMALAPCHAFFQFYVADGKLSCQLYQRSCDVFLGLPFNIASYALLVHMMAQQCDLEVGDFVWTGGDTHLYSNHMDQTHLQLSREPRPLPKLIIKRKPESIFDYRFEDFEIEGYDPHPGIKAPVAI
Experimental: All of the compounds were tested against human cells, L. casei, E. coli, and S. faecium.

L. casei TS = L. casei TS (Lacticaseibacillus casei, UniProt P00469); assay: Inhibition of thymidylate synthase (TS), L. casei; assay type: biochemical, Lactobacillus casei
L. casei TS, sequence (P00469 whole entry): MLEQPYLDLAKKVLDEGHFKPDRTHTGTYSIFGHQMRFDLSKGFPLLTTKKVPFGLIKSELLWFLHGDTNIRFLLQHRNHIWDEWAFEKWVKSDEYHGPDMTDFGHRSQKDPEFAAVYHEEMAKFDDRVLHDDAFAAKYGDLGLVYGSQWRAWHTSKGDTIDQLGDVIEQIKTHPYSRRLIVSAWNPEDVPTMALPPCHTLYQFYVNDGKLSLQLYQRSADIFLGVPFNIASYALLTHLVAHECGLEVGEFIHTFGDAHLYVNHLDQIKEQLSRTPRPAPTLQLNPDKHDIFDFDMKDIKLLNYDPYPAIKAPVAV

R1 cells = assay: Growth inhibition of R1 subline (increased DHFR); assay type: cell-based; details: Homo sapiens
R2 cells = assay: Growth inhibition of R2 subline (MTX-transport deficient); assay type: cell-based; details: Homo sapiens
[5] = substrate: Nc1nc(N)c2c(CCc3ccc(C(=O)N[C@@H](CCC(=O)O)C(=O)O)cc3)coc2n1; assay: Substrate activity for CCRF-CEM folylpolyglutamate synthetase; assay type: biochemical, human; details: other: Table 18; substrate for FPGS
Experimental: as §1, §2

[6] = substrate: Nc1nc(N)c2nc(CNc3ccc(C(=O)N[C@@H](CCC(=O)O)C(=O)O)cc3)cnc2n1; assay: as above; assay type: biochemical, human; details: substrate for FPGS
Experimental: as §1, §2

[7] = Table 15, continuous (120 hours) exposure, read-out: Growth inhibition EC50, FaDu
[8] = Table 19, continuous exposure (0 to 120 hours), read-out: Growth inhibition EC50, CCRF-CEM
[9] = read-out: Growth inhibition EC50

EC50 (FaDu; [7]): 1000 ± 100 nM
Molecule: CN(Cc1ccc(S(=O)(=O)N2CCOCC2)cc1)c1ccc2c3c(cccc13)C(=N)N2 [AG331]

Molecule: Nc1nc(N)c2c(CCc3ccc(C(=O)N[C@@H](CCC(=O)O)C(=O)O)cc3)coc2n1 [Compound 33, N-[4-[2-(2,4-diaminofuro[2,3-d]pyrimidin-5-yl)ethyl]-benzoyl]-L-glutamic acid]
EC50 (A253): 540 ± 90 nM
EC50 (R30dm cells; Table 19, continuous exposure (0 to 120 hours), read-out: Growth inhibition EC50, R30DM): 4250 nM
IC50 (CCRF-CEM DHFR): 250 nM
EC50 (FaDu; Homo sapiens, FaDu, Table 19, continuous exposure (0 to 120 hours), read-out: Growth inhibition EC50, FaDu): 18 ± 20 nM
EC50 (CCRF-CEM cells; [8]): 290 nM
IC50 (L. casei DHFR; Table 17, read-out: L. casei DHFR IC50): 100 nM
Vmax(rel) [1]: 0.65 ± 0.01
IC50 (human recombinant TS): 220000 nM

IC50 (CCRF-CEM DHFR): 30500 nM
EC50 (CCRF-CEM cells; [8]): 48000 nM
Vmax(rel) [1]: 0.6
IC50 (human recombinant TS): 63000 nM
Molecule: Nc1nc(N)c2c(CNCc3ccc(C(=O)N[C@@H](CCC(=O)O)C(=O)O)cc3)coc2n1 [Compound 34]

Molecule: Cc1nc(N)nc2[nH]cc(CCc3ccc(C(=O)N[C@@H](CCC(=O)O)C(=O)O)cc3)c12 [Compound 113-161]
protection study with hypoxanthine (Hx) and thymidine (TdR) (FaDu cells): almost completely reversed the TS inhibition

Molecule: Nc1nc(N)c2c(COc3ccc4ccccc4c3)coc2n1 [Compound 164, 2,4-Diamino-5-[(2-naphthoxy)methyl]furo[2,3-d]pyrimidine]
IC50 (RL DHFR): 60300 nM
IC50 (Tg DHFR; Table 16, read-out: Tg DHFR IC50): > 42000 nM
IC50 (Tg DHFR; Table 25, read-out: Inhibitor Concentrations (IC50) tgDHFR): > 42000 nM
Selectivity ratio rl/pc (Pc DHFR [2]; IC50 rlDHFR/IC50 pcDHFR): 4.31
Selectivity Ratio RL/Pc (Pc DHFR [2]; Table 16): 4.31
IC50 (Pc DHFR [3]; Table 16, read-out: Pc DHFR IC50): 14000 nM
IC50 (Pc DHFR [3]; Table 25, read-out: Inhibitor Concentrations (IC50) pcDHFR): 14000 nM

Molecule: Nc1nc2[nH]cc(CNc3ccc(C(=O)N[C@@H](CCC(=O)O)C(=O)O)cc3)c2c(=O)[nH]1 [Compound 407]
EC50 (R30dm cells; Table 23, continuous exposure, read-out: Growth inhibition EC50, R30dm (decreased FPGS)): 120 ± 10 nM
IC50 (TS from P. carinii): 5800 nM
IC50 [4]: > 12000 nM
IC50 (L. casei TS): 46000 nM
EC50 (CCRF-CEM cells; Table 23, continuous exposure, read-out: Growth inhibition EC50, CEM (sensitive)): 79 nM
EC50 (R1 cells; Table 23, continuous exposure, read-out: Growth inhibition EC50, R1 (↑ DHFR)): 200 ± 20 nM
IC50 (L. casei DHFR): 6900 nM
EC50 (R2 cells; Table 23, continuous exposure, read-out: Growth inhibition EC50, R2 (↓ transport)): 310 ± 30 nM

Molecule: CN(Cc1cnc2nc(N)nc(N)c2n1)c1ccc(C(=O)N[C@@H](CCC(=O)O)C(=O)O)cc1 [MTX, methotrexate, reference compound]
EC50 (FaDu; Homo sapiens, FaDu, 120 h, read-out: Growth inhibition EC50, FaDu): 31 ± 2 nM
EC50 (FaDu; Homo sapiens, FaDu, read-out: Growth inhibition EC50): 11.3 ± 1.8 nM
EC50 (FaDu; Homo sapiens, FaDu, read-out: Growth inhibition EC50, FaDu): 17 ± 2 nM
EC50 (R1 cells; [9]): 675 ± 35 nM
EC50 (R1 cells; read-out: Growth inhibition EC50, R1): 595 ± 5 nM
EC50 (R1 cells; read-out: Growth inhibition EC50, R1 (↑ DHFR)): 6445 ± 55 nM
EC50 (R2 cells; [9]): 1600 ± 100 nM
EC50 (R2 cells; read-out: Growth inhibition EC50, R2): 3100 ± 100 nM
EC50 (R2 cells; read-out: Growth inhibition EC50, R2 (↓ transport)): 2350 ± 550 nM

EC50 (FaDu; [7]): 1700 ± 200 nM
Molecule: C#CCN(Cc1ccc2nc(N)[nH]c(=O)c2c1)c1ccc(C(=O)N[C@@H](CCC(=O)O)C(=O)O)cc1 [PDDF]

B1: CCRF-CEM human leukemia cell folylpolyglutamate synthetase (Homo sapiens) (protein)
chain: MEYQDAVRMLNTLQTNAGYLEQVKRQRGDPQTQLEAMELYLARSGLQVEDLDRLNIIHVTGTKGKGSTCAFTECILRSYGLKTGFFSSPHLVQVRERIRINGQPISPELFTKYFWRLYHRLEETKDGSCVSMPPYFRFLTLMAFHVFLQEKVDLAVVEVGIGGAYDCTNIIRKPVVCGVSSLGIDHTSLLGDTVEKIAWQKGGIFKQGVPAFTVLQPEGPLAVLRDRAQQISCPLYLCPMLEALEEGGPPLTLGLEGEHQRSNAALALQLAHCWLQRQDRHGAGEPKASRPGLLWQLPLAPVFQPTSHMRLGLRNTEWPGRTQVLRRGPLTWYLDGAHTASSAQACVRWFRQALQGRERPSGGPEVRVLLFNATGDRDPAALLKLLQPCQFDYAVFCPNLTEVSSTGNADQQNFTVTLDQVLLRCLEHQQHWNHLDEEQASPDLWSAPSPEPGGSASLLLAPHPPHTCSASSLVFSCISHALQWISQGRDPIFQPPSPPKGLLTHPVAHSGASILREAAAIHVLVTGSLHLVGGVLKLLEPALSQ
notes: substrates for human leukemia cell CCRF-CEM folylpolyglutamate synthetase; endogenous in cells; host or cells: CCRF-CEM human leukemia cells
Km [5]: 8.5 ± 2.1 µM
Km ([6]; other: Table 10): 4.3 ± 0.2 µM
Km ([6]; other: Table 18): 4.8 ± 0.7 µM
